According to patent US12077503B2, “Substituted cyclic amides and their use as herbicides” (FMC CORPORATION, priority 2015, dated 2024):

Columns and labels:
Format in all cases: in vivo
[1] = tested on: barnyardgrass (Echinochloa crus-galli); experiment: Test G Pre-Emergence Protocol; conditions: Echinochloa crus-galli, pre-emergence, 312 h, evaluated after 13 days; for pest or weed control at 15.625 g/ha: 15.625 g ai/ha, read-out: Barnyard grass damage rating (100=total damage to plant; 0=no damage to plant); for pest or weed control at 62.5 g/ha: 62.5 g ai/ha, 100=total damage to plant, 0=no damage to plant, read-out: plant damage rating, Barnyardgrass; for pest or weed control at 250 g/ha: 250 g ai/ha, read-out: Barnyardgrass damage rating (100=total damage to plant; 0=no damage to plant)
In short: (§1)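 Scores are visual damage ratings from 0 (no damage) to 100 (total plant kill), taken 13 days after treatment. Compound was sprayed one day post-sowing at 15.625, 62.5 or 250 g/ha in 50:50 acetone/water with 0.5% Tween 20.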

corn (Zea mays) [2] = experiment: Test G Pre-Emergence Protocol; conditions: Zea mays, pre-emergence, 312 h, evaluated after 13 days; for plant injury at 15.625 g/ha: 15.625 g ai/ha; for plant injury at 15.625 g/ha / plant injury at 250 g/ha: read-out: Corn damage rating (100=total damage to plant; 0=no damage to plant); for plant injury at 62.5 g/ha: 62.5 g ai/ha, 100=total damage to plant, 0=no damage to plant, read-out: plant damage rating, Corn; for plant injury at 250 g/ha: 250 g ai/ha
In short: as §1

[3] = tested on: giant foxtail (Setaria faberi); experiment: Test G Pre-Emergence Protocol; conditions: Setaria faberi, pre-emergence, 312 h, evaluated after 13 days; for pest or weed control at 15.625 g/ha: 15.625 g ai/ha; for pest or weed control at 15.625 g/ha / pest or weed control at 250 g/ha: read-out: Foxtail, Giant damage rating (100=total damage to plant; 0=no damage to plant); for pest or weed control at 62.5 g/ha: 62.5 g ai/ha, 100=total damage to plant, 0=no damage to plant, read-out: plant damage rating, Foxtail, Giant; for pest or weed control at 250 g/ha: 250 g ai/ha
In short: as §1

[4] = tested on: ivy-leaved morning glory (Ipomoea hederacea); experiment: Test G Pre-Emergence Protocol; conditions: Ipomoea, pre-emergence, 312 h, evaluated after 13 days; for pest or weed control at 15.625 g/ha: 15.625 g ai/ha, read-out: Morning-glory, Ivy-leaved damage rating (100=total damage to plant; 0=no damage to plant); for pest or weed control at 62.5 g/ha: 62.5 g ai/ha, 100=total damage to plant, 0=no damage to plant, read-out: plant damage rating, Morningglory, Ivy-leaved; for pest or weed control at 250 g/ha: 250 g ai/ha, read-out: Morningglory, Ivy-leaved damage rating (100=total damage to plant; 0=no damage to plant)
In short: as §1

[5] = tested on: redroot pigweed (Amaranthus retroflexus); experiment: Test G Pre-Emergence Protocol; conditions: Amaranthus retroflexus, pre-emergence, 312 h, evaluated after 13 days; for pest or weed control at 15.625 g/ha: 15.625 g ai/ha; for pest or weed control at 15.625 g/ha / pest or weed control at 250 g/ha: read-out: Pigweed, Redroot damage rating (100=total damage to plant; 0=no damage to plant); for pest or weed control at 62.5 g/ha: 62.5 g ai/ha, 100=total damage to plant, 0=no damage to plant, read-out: plant damage rating, Pigweed, Redroot; for pest or weed control at 250 g/ha: 250 g ai/ha
In short: as §1

[6] = tested on: velvetleaf (Abutilon theophrasti); experiment: Test G Pre-Emergence Protocol; conditions: Abutilon theophrasti, pre-emergence, 312 h, evaluated after 13 days; for pest or weed control at 15.625 g/ha: 15.625 g ai/ha; for pest or weed control at 15.625 g/ha / pest or weed control at 250 g/ha: read-out: Velvetleaf damage rating (100=total damage to plant; 0=no damage to plant); for pest or weed control at 62.5 g/ha: 62.5 g ai/ha, 100=total damage to plant, 0=no damage to plant, read-out: plant damage rating, Velvetleaf; for pest or weed control at 250 g/ha: 250 g ai/ha
In short: as §1

[7] = tested on: barnyardgrass (Echinochloa crus-galli); experiment: Test G Post-Emergence Protocol; conditions: Echinochloa crus-galli, post-emergence, 312 h; for pest or weed control at 15.625 g/ha: 15.625 g ai/ha, evaluated after 13 days (100=total damage to plant; 0=no damage to plant), read-out: Barnyardgrass damage rating; for pest or weed control at 62.5 g/ha: 62.5 g ai/ha, read-out: Barnyardgrass damage rating (100=total damage to plant; 0=no damage to plant); for pest or weed control at 62.5 g/ha / pest or weed control at 250 g/ha: evaluated after 13 days; for pest or weed control at 250 g/ha: 250 g ai/ha, read-out: damage to plant, Barnyardgrass (100=total damage to plant; 0=no damage to plant)
In short: (§2)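 Eight days post-sowing, plants received a spray of test compound (acetone/water 50:50, 0.5% Tween 20) at 15.625, 62.5 or 250 g/ha. Glasshouse regime thereafter: 24/16 °C, 14 h light, 65% humidity. Assessment after 13 days on a 0–100 damage scale.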

corn (Zea mays) [8] = experiment: Test G Post-Emergence Protocol; conditions: Zea mays, post-emergence, 312 h; for plant injury at 15.625 g/ha: 15.625 g ai/ha, evaluated after 13 days (100=total damage to plant; 0=no damage to plant), read-out: Corn damage rating; for plant injury at 62.5 g/ha: 62.5 g ai/ha, read-out: Corn damage rating (100=total damage to plant; 0=no damage to plant); for plant injury at 62.5 g/ha / plant injury at 250 g/ha: evaluated after 13 days; for plant injury at 250 g/ha: 250 g ai/ha, read-out: damage to plant, Corn (100=total damage to plant; 0=no damage to plant)
In short: as §2

[9] = tested on: giant foxtail (Setaria faberi); experiment: Test G Post-Emergence Protocol; conditions: Setaria faberi, post-emergence, 312 h; for pest or weed control at 15.625 g/ha: 15.625 g ai/ha, evaluated after 13 days (100=total damage to plant; 0=no damage to plant), read-out: Foxtail, Giant damage rating; for pest or weed control at 62.5 g/ha: 62.5 g ai/ha, read-out: Foxtail, Giant damage rating (100=total damage to plant; 0=no damage to plant); for pest or weed control at 62.5 g/ha / pest or weed control at 250 g/ha: evaluated after 13 days; for pest or weed control at 250 g/ha: 250 g ai/ha, read-out: damage to plant, Foxtail, Giant (100=total damage to plant; 0=no damage to plant)
In short: as §2

[10] = tested on: ivy-leaved morning glory (Ipomoea hederacea); experiment: Test G Post-Emergence Protocol; conditions: Ipomoea, post-emergence, 312 h; for pest or weed control at 15.625 g/ha: 15.625 g ai/ha, evaluated after 13 days (100=total damage to plant; 0=no damage to plant), read-out: Morningglory, Ivy-leaved damage rating; for pest or weed control at 62.5 g/ha: 62.5 g ai/ha, read-out: Morningglory, Ivy-leaved damage rating (100=total damage to plant; 0=no damage to plant); for pest or weed control at 62.5 g/ha / pest or weed control at 250 g/ha: evaluated after 13 days; for pest or weed control at 250 g/ha: 250 g ai/ha, read-out: damage to plant, Morningglory, Ivy-leaved (100=total damage to plant; 0=no damage to plant)
In short: as §2

[11] = tested on: redroot pigweed (Amaranthus retroflexus); experiment: Test G Post-Emergence Protocol; conditions: Amaranthus retroflexus, post-emergence, 312 h; for pest or weed control at 15.625 g/ha: 15.625 g ai/ha, evaluated after 13 days (100=total damage to plant; 0=no damage to plant), read-out: Pigweed, Redroot damage rating; for pest or weed control at 62.5 g/ha: 62.5 g ai/ha, read-out: Pigweed, Redroot damage rating (100=total damage to plant; 0=no damage to plant); for pest or weed control at 62.5 g/ha / pest or weed control at 250 g/ha: evaluated after 13 days; for pest or weed control at 250 g/ha: 250 g ai/ha, read-out: damage to plant, Pigweed, Redroot (100=total damage to plant; 0=no damage to plant)
In short: as §2

[12] = tested on: velvetleaf (Abutilon theophrasti); experiment: Test G Post-Emergence Protocol; conditions: Abutilon theophrasti, post-emergence, 312 h; for pest or weed control at 15.625 g/ha: 15.625 g ai/ha, evaluated after 13 days (100=total damage to plant; 0=no damage to plant), read-out: Velvetleaf damage rating; for pest or weed control at 62.5 g/ha: 62.5 g ai/ha, read-out: Velvetleaf damage rating (100=total damage to plant; 0=no damage to plant); for pest or weed control at 62.5 g/ha / pest or weed control at 250 g/ha: evaluated after 13 days; for pest or weed control at 250 g/ha: 250 g ai/ha, read-out: damage to plant, Velvetleaf (100=total damage to plant; 0=no damage to plant)
In short: as §2

SMILES | pest or weed control at 15.625 g/ha [1] [%] | pest or weed control at 62.5 g/ha [1] [%] | pest or weed control at 250 g/ha [1] [%] | plant injury at 15.625 g/ha (corn (Zea mays) [2]) [%] | plant injury at 62.5 g/ha (corn (Zea mays) [2]) [%] | plant injury at 250 g/ha (corn (Zea mays) [2]) [%] | pest or weed control at 15.625 g/ha [3] [%] | pest or weed control at 62.5 g/ha [3] [%] | pest or weed control at 250 g/ha [3] [%] | pest or weed control at 15.625 g/ha [4] [%] | pest or weed control at 62.5 g/ha [4] [%] | pest or weed control at 250 g/ha [4] [%] | pest or weed control at 15.625 g/ha [5] [%] | pest or weed control at 62.5 g/ha [5] [%] | pest or weed control at 250 g/ha [5] [%] | pest or weed control at 15.625 g/ha [6] [%] | pest or weed control at 62.5 g/ha [6] [%] | pest or weed control at 250 g/ha [6] [%] | pest or weed control at 15.625 g/ha [7] [%] | pest or weed control at 62.5 g/ha [7] [%] | other results
CN1C[C@@H](c2ccc(C(F)(F)F)cc2)[C@H](C(=O)Nc2ccc(F)cc2C(F)(F)F)C1=O (racemic) [Compound 1616] | 0 | 0 | 60 | 0 | 0 | 0 | 0 | 80 | 90 | 0 | 0 | 20 | 0 | 20 | 60 | 0 | 0 | 50 | 10 | 10 | pest or weed control at 250 g/ha [7]: 60%; plant injury at 15.625 g/ha (corn (Zea mays) [8]): 0%; plant injury at 62.5 g/ha (corn (Zea mays) [8]): 0%; plant injury at 250 g/ha (corn (Zea mays) [8]): 0%; pest or weed control at 15.625 g/ha [9]: 40%; pest or weed control at 62.5 g/ha [9]: 20%; pest or weed control at 250 g/ha [9]: 80%; pest or weed control at 15.625 g/ha [10]: 0%; pest or weed control at 62.5 g/ha [10]: 10%; pest or weed control at 250 g/ha [10]: 20%; pest or weed control at 15.625 g/ha [11]: 20%; pest or weed control at 62.5 g/ha [11]: 50%; pest or weed control at 250 g/ha [11]: 60%; pest or weed control at 15.625 g/ha [12]: 10%; pest or weed control at 62.5 g/ha [12]: 0%; pest or weed control at 250 g/ha [12]: 30%
Cc1cccc(NC(=O)[C@@H]2C(=O)N(C)C[C@H]2c2ccc(C(F)(F)F)cc2)c1Br (racemic) [Compound 1617] | 10 | 30 | 80 | 0 | 0 | 0 | 20 | 80 | 90 | 0 | 0 | 0 | 0 | 10 | 20 | 0 | 0 | 10 | 0 | 0 | pest or weed control at 250 g/ha [7]: 60%; plant injury at 15.625 g/ha (corn (Zea mays) [8]): 0%; plant injury at 62.5 g/ha (corn (Zea mays) [8]): 0%; plant injury at 250 g/ha (corn (Zea mays) [8]): 0%; pest or weed control at 15.625 g/ha [9]: 20%; pest or weed control at 62.5 g/ha [9]: 40%; pest or weed control at 250 g/ha [9]: 70%; pest or weed control at 15.625 g/ha [10]: 0%; pest or weed control at 62.5 g/ha [10]: 0%; pest or weed control at 250 g/ha [10]: 0%; pest or weed control at 15.625 g/ha [11]: 0%; pest or weed control at 62.5 g/ha [11]: 0%; pest or weed control at 250 g/ha [11]: 0%; pest or weed control at 15.625 g/ha [12]: 0%; pest or weed control at 62.5 g/ha [12]: 0%; pest or weed control at 250 g/ha [12]: 0%
